Where two headings read alike, the source gives them in different places.
Target: human PDE4D catalytic domain (Homo sapiens (Human), UniProt Q08499)
Test: PDE4 Assay (TR-FRET, FAM-cAMP cleavage)
Format: biochemical
Conditions: read-out: PDE4 IC50 range
In short: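 Readout is Tb-to-FAM time-resolved FRET after nanoparticle capture of AMP, the product of cleaving a cAMP/FAM-cAMP mixture by PDE4D catalytic domain (S380-L740) in the presence of titrated compound. Values are IC50 ranges in nM: concentration halving substrate cleavage relative to controls.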

[1] = human PDE4D catalytic domain (UniProt Q08499 [S380-L740]), 50% inhibition of substrate cleavage

Sequence of human PDE4D catalytic domain (Q08499 380-740): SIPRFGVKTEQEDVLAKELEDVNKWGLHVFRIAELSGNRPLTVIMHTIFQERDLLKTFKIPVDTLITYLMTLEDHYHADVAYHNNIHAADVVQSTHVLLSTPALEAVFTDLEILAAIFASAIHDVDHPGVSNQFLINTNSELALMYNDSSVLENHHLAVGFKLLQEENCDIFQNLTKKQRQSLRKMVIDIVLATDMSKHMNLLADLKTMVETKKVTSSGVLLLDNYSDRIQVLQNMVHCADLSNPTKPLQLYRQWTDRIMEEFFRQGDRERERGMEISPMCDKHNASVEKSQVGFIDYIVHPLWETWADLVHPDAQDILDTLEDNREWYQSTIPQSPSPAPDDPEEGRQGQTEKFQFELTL

SMILES | IC50 [1] [nM] | IC50 (Table 17, Examples 297-316) [nM]
CCn1nc(CCCOC(=O)c2ccccc2S(C)(=O)=O)c2c1C(=O)NCC1(CCOCC1)C2 [Example 64, 3-(1-ethyl-8-oxo-spiro[6,7-dihydro-4H-pyrazolo[3,4-c]azepine-5,4′-tetrahydropyran]-3-yl)propyl 2-methylsulfonylbenzoate] | < 100 | 
CCn1nc(C[C@@H](C)COC(=O)c2ccc(S(=O)(=O)CC)cc2)c2c1C(=O)NCC1(CCOCC1)C2 [Example 157, [(2R)-3-(1-ethyl-8-oxo-spiro[6,7-dihydro-4H-pyrazolo[3,4-c]azepine-5,4′-tetrahydropyran]-3-yl)-2-methyl-propyl] 4-ethylsulfonylbenzoate] | < 100 | 
CCn1nc(CCCOC(=O)C2CCN(C)CC2)c2c1C(=O)NCC1(CCOCC1)C2 [Example 256, 3-(1-ethyl-8-oxo-spiro[6,7-dihydro-4H-pyrazolo[3,4-c]azepine-5,4′-tetrahydropyran]-3-yl)propyl 1-methylpiperidine-4-carboxylate] | 100 to 500 | 
CCn1nc(CCCOC(=O)c2ccc(OC)c(C(F)(F)F)c2)c2c1C(=O)NCC1(CCOCC1)C2 [Example 79, 3-(1-ethyl-8-oxo-spiro[6,7-dihydro-4H-pyrazolo[3,4-c]azepine-5,4′-tetrahydro-pyran]-3-yl)propyl 4-methoxy-3-(trifluoromethyl)benzoate] | < 100 | 
CCn1nc(CCCOC(=O)c2ccc(Cl)c(C(F)(F)F)c2)c2c1C(=O)NCC1(CCOCC1)C2 [Example 89, 3-(1-ethyl-8-oxo-spiro[6,7-dihydro-4H-pyrazolo[3,4-c]azepine-5,4′-tetrahydro-pyran]-3-yl)propyl 4-chloro-3-(trifluoromethyl)benzoate] | < 100 | 
CCc1ccc(C(=O)OC[C@H](C)Cc2nn(CC)c3c2CC2(CCOCC2)CNC3=O)cc1 [Example 148, [(2R)-3-(1-ethyl-8-oxo-spiro[6,7-dihydro-4H-pyrazolo[3,4-c]azepine-5,4′-tetrahydropyran]-3-yl)-2-methyl-propyl] 4-ethylbenzoate] | < 100 | 
CCn1nc(CCCCOC(=O)c2cscn2)c2c1C(=O)NCC1(CCOCC1)C2 [Example 269, 4-(1-ethyl-8-oxo-spiro[6,7-dihydro-4H-pyrazolo[3,4-c]azepine-5,4′-tetrahydropyran]-3-yl)butyl thiazole-4-carboxylate] | < 100 | 
CCn1nc(CC(C)(C)COC(=O)c2ccc(F)cc2)c2c1C(=O)NCC1(CCOCC1)C2 [Example 192, [3-(1-ethyl-8-oxo-spiro[6,7-dihydro-4H-pyrazolo[3,4-c]azepine-5,4′-tetrahydropyran]-3-yl)-2,2-dimethyl-propyl] 4-fluorobenzoate] | < 100 | 
CCn1nc(C[C@@H](C)COC(=O)c2ccccc2F)c2c1C(=O)NCC1(CCOCC1)C2 [Example 144, [(2R)-3-(1-ethyl-8-oxo-spiro[6,7-dihydro-4H-pyrazolo[3,4-c]azepine-5,4′-tetrahydropyran]-3-yl)-2-methyl-propyl] 2-fluorobenzoate] | < 100 | 
CCn1nc(CC(C)(C)COC(=O)c2cccc(S(=O)(=O)C(C)C)c2)c2c1C(=O)NCC1(CCOCC1)C2 [Example 206, [3-(1-ethyl-8-oxo-spiro[6,7-dihydro-4H-pyrazolo[3,4-c]azepine-5,4′-tetrahydropyran]-3-yl)-2,2-dimethyl-propyl] 3-isopropylsulfonylbenzoate] | < 100 | 
CCn1nc(CCCOC(=O)c2ccc(C(N)=O)cc2)c2c1C(=O)NCC1(CCOCC1)C2 [Example 104, 3-(1-ethyl-8-oxo-spiro[6,7-dihydro-4H-pyrazolo[3,4-c]azepine-5,4′-tetrahydropyran]-3-yl)propyl 4-carbamoylbenzoate] | < 100 | 
CCn1nc(C[C@@H](C)COC(=O)c2cccc(F)c2)c2c1C(=O)NCC1(CCOCC1)C2 [Example 143, [(2R)-3-(1-ethyl-8-oxo-spiro[6,7-dihydro-4H-pyrazolo[3,4-c]azepine-5,4′-tetrahydropyran]-3-yl)-2-methyl-propyl] 3-fluorobenzoate] | < 100 | 
CCn1nc(CCCOC(=O)c2cc(F)cc(C#N)c2)c2c1C(=O)NCC1(CCOCC1)C2 [Example 29, 3-(1-ethyl-8-oxo-spiro[6,7-dihydro-4H-pyrazolo[3,4-c]azepine-5,4′-tetrahydropyran]-3-yl)propyl 3-cyano-5-fluoro-benzoate] | < 100 | 
CCn1nc(CCCCOC(=O)c2ccc(S(C)(=O)=O)cc2)c2c1C(=O)NCC1(CCOCC1)C2 [Example 130, 4-(1-ethyl-8-oxo-spiro[6,7-dihydro-4H-pyrazolo[3,4-c]azepine-5,4′-tetrahydropyran]-3-yl)butyl 4-methylsulfonyl-benzoate] | < 100 | 
CCn1nc(C[C@@H](C)COC(=O)[C@H]2CC[C@@H](O)CC2)c2c1C(=O)NCC1(CCOCC1)C2 [Example 147, [(2R)-3-(1-ethyl-8-oxo-spiro[6,7-dihydro-4H-pyrazolo[3,4-c]azepine-5,4′-tetrahydropyran]-3-yl)-2-methyl-propyl] 4-hydroxy-cyclohexanecarboxylate] | < 100 | 
CCn1nc(CC(C)(C)COC(=O)c2ccccc2F)c2c1C(=O)NCC1(CCOCC1)C2 [Example 193, [3-(1-ethyl-8-oxo-spiro[6,7-dihydro-4H-pyrazolo[3,4-c]azepine-5,4′-tetrahydropyran]-3-yl)-2,2-dimethyl-propyl] 2-fluorobenzoate] | < 100 | 
CCn1nc(CCCOC(=O)c2cnc(C)o2)c2c1C(=O)NCC1(CCOCC1)C2 [Example 241, 3-(1-ethyl-8-oxo-spiro[6,7-dihydro-4H-pyrazolo[3,4-c]azepine-5,4′-tetrahydropyran]-3-yl)propyl 2-methyloxazole-5-carboxylate] | < 100 | 
CCn1nc(CCCOC(=O)c2ccc(F)c(C#N)c2)c2c1C(=O)NCC1(CCOCC1)C2 [Example 30, 3-(1-ethyl-8-oxo-spiro[6,7-dihydro-4H-pyrazolo[3,4-c]azepine-5,4′-tetrahydropyran]-3-yl)propyl 3-cyano-4-fluoro-benzoate] | < 100 | 
CCn1nc(CC(C)(C)COC(=O)C2CCN(C(C)=O)CC2)c2c1C(=O)NCC1(CCOCC1)C2 [Example 314, [3-(1-ethyl-8-oxo-spiro[6,7-dihydro-4H-pyrazolo[3,4-c]azepine-5,4′-tetrahydropyran]-3-yl)-2,2-dimethyl-propyl] 1-acetylpiperidine-4-carboxylate] |  | < 100
CCn1nc(CC(C)(C)COC(=O)c2ccc(S(=O)(=O)N(C)C)cc2)c2c1C(=O)NCC1(CCOCC1)C2 [Example 208, [3-(1-ethyl-8-oxo-spiro-[6,7-dihydro-4H-pyrazolo-[3,4-c]azepine-5,4′-tetra-hydropyran]-3-yl)-2,2-dimethyl-propyl] 4-(di-methylsulfamoyl)benzoate] | < 100 | 
CCn1nc(CCCOC(=O)c2cc(OC)ccc2Cl)c2c1C(=O)NCC1(CCOCC1)C2 [Example 56, 3-(1-ethyl-8-oxo-spiro[6,7-dihydro-4H-pyrazolo[3,4-c]azepine-5,4′-tetrahydropyran]-3-yl)propyl 2-chloro-5-methoxy-benzoate] | < 100 | 
CCn1nc(C[C@@H](C)COC(=O)c2cccc(C(=O)N3CCCCC3)c2)c2c1C(=O)NCC1(CCOCC1)C2 [Example 182, [(2R)-3-(1-ethyl-8-oxo-spiro[6,7-dihydro-4H-pyrazolo[3,4-c]azepine-5,4′-tetrahydropyran]-3-yl)-2-methyl-propyl] 3-(piperidine-1-carbonyl)benzoate] | < 100 | 

— patent US10793580B2, “Substituted pyrazoloazepin-8-ones and their use as phosphodiesterase inhibitors” (LEO Pharma A/S, priority 2016, dated 2020)
